Laboratory results taken from patent US3979508A, “Compositions and methods therewith for penicillin hypersensitivity detection” (Kremers-Urban Company, priority 1975, dated 1976).
Where “and” joins values, the source holds several entries; their conditions need not be identical. Equal values may be shown once.

Test system: penicillin hypersensitivity (patients)
Assay: Clinical evaluation by 26 investigators: scratch/intradermal skin tests with PPL and Penicillin G (Tables IV-VII, IX-XI)
Assay type: in vivo, human
Settings: for TOTAL (+) No. / TOTAL (+) Percent of total positive: skin reactive penicillin allergy patients
Experimental: Twenty-six clinical investigators contributed a total of 1160 cases to the evaluation. Patients were tested according to a protocol as follows:
1. All patients being subjected to allergy investigation were to be tested for penicillin hypersensitivity. Two preparations were to be used. These are:
2. Penicillin G (Benzyl Penicillin) in a concentration of 10,000 units per cc.
For maximum safety, it was recommended that the tests first be done by the scratch technique. Intradermal tests were then to be done on those showing negative scratch tests. In cases where the penicillin sensitivity was suspected to be of a violent character, more dilute reagents were recommended at the discretion of the individual investigator.
A uniform technique was recommended for the performance of the intradermal tests. Only a minimal amount of testing reagent was to be injected so as to make a barely discernible intradermal bleb. The amount necessary for this injection is about 0.01 to 0.03 cc. It was recognized that the intrepretation of the test results is an important matter. The reactions were to be recorded in terms of (1) the time required for the appearance of a reaction, (2) the size of erythema and (3) the size of whealing. These were to be recorded as actual measurements. Some objective measurement of dermographism was also to be recorded.
It was also contemplated that all patients who were to be treated with penicillin be tested as recommended above, even though they had previously received penicillin with impunity.
A comprehensive clinical history was takan on each patient with particular regard to previous penicillin therapy, and reaction.
In order to properly analyze the data on such a large number of patients, a data processing system was utilized.
Table IV summarizes the skin test results on all patients, without regard to other specific factors. […] It will also be noted that a significant number of patients reacted only to PPL, and another group only to Pen G. Therefore, to detect the maximum number of reactors, both test reagents would be required. A technical problem was classification of the ambiguous or borderline reactors, particularly those showing only erythema. Attempts to correlate the appearance of the erythematous flare without wheal formation with a history of penicillin hypersensitivity were unsuccessful. In some instances, however, erythema without wheal did appear to be associated with hypersensitivity to the antibiotic. The time of development of erythema without wheal varied widely from a few minutes to more than 7 days which also made its importance questionable. as a diagnostic sign. For these reasons erythema alone responses were counted with the negatives. In some instances, however, data will be presented in which erythema without wheal are counted as positive responses (figures appearing in parentheses).

[1] = Group I (675 patients): penicillin Rx, no hypersensitivity, erythema only counted as negative
[2] = Group I (675 patients): penicillin Rx, no hypersensitivity, parentheses: erythema only (ambiguous) counted as positive
[3] = Group II (352 patients): penicillin Rx & hypersensitive, erythema only counted as negative
[4] = Group II (352 patients): penicillin Rx & hypersensitive, parentheses: erythema only (ambiguous) counted as positive
[5] = Group III (70 patients): no penicillin Rx in past, erythema only counted as negative
[6] = Group III (70 patients): no penicillin Rx in past, parentheses: erythema only (ambiguous) counted as positive
[7] = Group IV (56 patients): no data, erythema only counted as negative
[8] = Group IV (56 patients): no data, parentheses: erythema only (ambiguous) counted as positive
[9] = TOTALS (1153 patients), erythema only counted as negative
[10] = TOTALS (1153 patients), parentheses: erythema only (ambiguous) counted as positive
[11] = TOTALS, all patients (1153 tested), erythema only counted as negative
[12] = TOTALS, all patients (1153 tested), parentheses: erythema only (ambiguous) counted as positive
[13] = all patients (1153 tested), erythema only counted as negative
[14] = all patients (1153 tested), parentheses: erythema only (ambiguous) counted as positive
[15] = history of therapy: Multi Courses (177 tested)
[16] = history of therapy: One Course (249 tested)
[17] = history of therapy: One Dose (152 tested)
[18] = history of therapy: TOTALS (578 tested)
[19] = penicillin reaction between 30 minutes and 24 hours post therapy (87 patients), erythema only counted as negative
[20] = penicillin reaction between 30 minutes and 24 hours post therapy (87 patients), parentheses: erythema only (ambiguous) counted as positive
[21] = penicillin reaction more than 24 hours post therapy (144 patients), erythema only counted as negative
[22] = penicillin reaction more than 24 hours post therapy (144 patients), parentheses: erythema only (ambiguous) counted as positive
[23] = penicillin reaction within 30 minutes post therapy (56 patients), erythema only counted as negative
[24] = penicillin reaction within 30 minutes post therapy (56 patients), parentheses: erythema only (ambiguous) counted as positive
[25] = reason for testing: "Penicillin" (240 tested)
[26] = reason for testing: Other Substances (463 tested)
[27] = reaction between 30 minutes and 24 hours post therapy, erythema only counted as negative
[28] = reaction between 30 minutes and 24 hours post therapy, parentheses: erythema only (ambiguous) counted as positive
[29] = reaction more than 24 hours post therapy, parentheses: erythema only (ambiguous) counted as positive
[30] = reaction within 30 minutes post therapy, parentheses: erythema only (ambiguous) counted as positive
[31] = type of hypersensitivity reaction: Skin (309 tested)
[32] = type of hypersensitivity reaction: Visceral (43 tested)

penicilloyl-poly-L-lysine [PPL]
Skin Test (+) No. [1]: 36
Skin Test (+) Percent [1]: 5.3%
Skin Test (-) No. [1]: 639
Skin Test (-) Percent [1]: 94.7%
Skin Test (+) No. [2]: 78
Skin Test (+) Percent [2]: 11.6%
Skin Test (-) No. [2]: 597
Skin Test (-) Percent [2]: 88.4%
Skin Test (+) No. [3]: 73
Skin Test (+) Percent [3]: 20.7%
Skin Test (-) No. [3]: 279
Skin Test (-) Percent [3]: 79.3%
Skin Test (+) No. [4]: 97
Skin Test (+) Percent [4]: 27.6%
Skin Test (-) No. [4]: 255
Skin Test (-) Percent [4]: 72.4%
Skin Test (+) No. [5]: 1
Skin Test (+) Percent [5]: 1.4%
Skin Test (-) No. [5]: 69
Skin Test (-) Percent [5]: 98.6%
Skin Test (+) No. [6]: 6
Skin Test (+) Percent [6]: 8.6%
Skin Test (-) No. [6]: 64
Skin Test (-) Percent [6]: 91.4%
Skin Test (+) No. [7]: 3
Skin Test (+) Percent [7]: 5.4%
Skin Test (-) No. [7]: 53
Skin Test (-) Percent [7]: 94.6%
Skin Test (+) No. [8]: 4
Skin Test (+) Percent [8]: 7.1%
Skin Test (-) No. [8]: 52
Skin Test (-) Percent [8]: 92.9%
SKIN TEST RESPONSE No. (No reactions (675 tested)): 36
SKIN TEST RESPONSE Percent (No reactions (675 tested)): 5.3%
Skin Test (-) No. [9]: 1040
Skin Test (-) Percent [9]: 90.2%
Skin Test (-) No. [10]: 968
Skin Test (-) Percent [10]: 84.0%
Skin Test (+) No. [11]: 113
Skin Test (+) Percent [11]: 9.8%
Skin Test (+) No. [12]: 185
Skin Test (+) Percent [12]: 16.1% and 16.0%
PPL (+) PG (+) No. [13]: 34
PPL (+) PG (+) Percent [13]: 3.0%
PPL (+) PG (-) No. [13]: 79
PPL (+) PG (-) Percent [13]: 6.9%
PPL (-) PG (+) No. [13]: 38
PPL (-) PG (+) Percent [13]: 3.3%
PPL (-) PG (-) No. [13]: 1002
PPL (-) PG (-) Percent [13]: 86.9%
PPL (+) PG (+) No. [14]: 80
PPL (+) PG (+) Percent [14]: 6.9%
PPL (+) PG (-) No. [14]: 105
PPL (+) PG (-) Percent [14]: 9.1%
PPL (-) PG (+) No. [14]: 49
PPL (-) PG (+) Percent [14]: 4.3%
PPL (-) PG (-) No. [14]: 919
PPL (-) PG (-) Percent [14]: 79.7%
positive skin tests, patients positive/patients in group (delayed (after 24 hours) group): 24/144
positive skin tests, percent of group (delayed (after 24 hours) group, 144 patients): 16.7%
Skin Reactions PPL- / PEN G- No. [15]: 14
Skin Reactions PPL- / PEN G- Percent [15]: 7.9%
Skin Reactions PPL- / PEN G- No. [16]: 14
Skin Reactions PPL- / PEN G- Percent [16]: 5.6%
Skin Reactions PPL- / PEN G- No. [17]: 24
Skin Reactions PPL- / PEN G- Percent [17]: 15.8%
Skin Reactions PPL- / PEN G- No. [18]: 52
Skin Reactions PPL- / PEN G- Percent [18]: 9.0%
positive skin tests, patients positive/patients in group (immediate reacting group (within 30 minutes)): 26/56
positive skin tests, percent of group (immediate reacting group (within 30 minutes), 56 patients): 46% and 46.5%
percent of skin-test positive patients that would be missed if only this reagent were used as skin test antigen (immediate reactor group): 16%
PL (+) PG (+) No. [19]: 12
PL (+) PG (+) Percent [19]: 13.8%
PPL (+) PG (-) No. [19]: 9
PPL (+) PG (-) Percent [19]: 10.4%
PPL (-) PG (+) No. [19]: 5
PPL (-) PG (+) Percent [19]: 5.7%
PPL (-) PG (-) No. [19]: 61
PPL (-) PG (-) Percent [19]: 70.0%
PL (+) PG (+) No. [20]: 14
PL (+) PG (+) Percent [20]: 16.1%
PPL (+) PG (-) No. [20]: 10
PPL (+) PG (-) Percent [20]: 11.5%
PPL (-) PG (+) No. [20]: 7
PPL (-) PG (+) Percent [20]: 8.0%
PPL (-) PG (-) No. [20]: 56
PPL (-) PG (-) Percent [20]: 64.4%
PL (+) PG (+) No. [21]: 8
PL (+) PG (+) Percent [21]: 5.6%
PPL (+) PG (-) No. [21]: 16
PPL (+) PG (-) Percent [21]: 11.1%
PPL (-) PG (+) No. [21]: 9
PPL (-) PG (+) Percent [21]: 6.2%
PPL (-) PG (-) No. [21]: 111
PPL (-) PG (-) Percent [21]: 77.1%
PL (+) PG (+) No. [22]: 11
PL (+) PG (+) Percent [22]: 7.6%
PPL (+) PG (-) No. [22]: 22
PPL (+) PG (-) Percent [22]: 15.3%
PPL (-) PG (+) No. [22]: 11
PPL (-) PG (+) Percent [22]: 7.6%
PPL (-) PG (-) No. [22]: 100
PPL (-) PG (-) Percent [22]: 69.4%
PL (+) PG (+) No. [23]: 12
PL (+) PG (+) Percent [23]: 21.4%
PPL (+) PG (-) No. [23]: 14
PPL (+) PG (-) Percent [23]: 25.0%
PPL (-) PG (+) No. [23]: 5
PPL (-) PG (+) Percent [23]: 8.9%
PPL (-) PG (-) No. [23]: 25
PPL (-) PG (-) Percent [23]: 44.6%
PL (+) PG (+) No. [24]: 15
PL (+) PG (+) Percent [24]: 26.8%
PPL (+) PG (-) No. [24]: 16
PPL (+) PG (-) Percent [24]: 28.6%
PPL (-) PG (+) No. [24]: 5
PPL (-) PG (+) Percent [24]: 8.9%
PPL (-) PG (-) No. [24]: 20
PPL (-) PG (-) Percent [24]: 35.7%
Skin Test (+) No. [25]: 31
Skin Test (+) Percent [25]: 12.9%
Skin Test (+) No. [26]: 21
Skin Test (+) Percent [26]: 4.5%
TOTAL (+) No. [27]: 21
TOTAL (+) Percent of total positive [27]: 80.8%
TOTAL (+) No. [28]: 24
TOTAL (+) Percent of total positive [28]: 77.4%
TOTAL (+) No. (reaction more than 24 hours post therapy, erythema only counted as negative): 24
TOTAL (+) No. [29]: 33
TOTAL (+) Percent of total positive [29]: 75.0%
TOTAL (+) No. (reaction within 30 minutes post therapy, erythema only counted as negative): 26
TOTAL (+) No. [30]: 31
TOTAL (+) Percent of total positive [30]: 86.1%
SKIN TEST RESPONSE No. [31]: 66
SKIN TEST RESPONSE Percent [31]: 21.4%
SKIN TEST RESPONSE No. [32]: 10
SKIN TEST RESPONSE Percent [32]: 23.3%
